Measured values: patent publication US20090181972A1, “Novel Inhibitors of Cysteine Proteases, the Pharmaceutical Compositions Thereof and their Therapeutic Applications” (priority 2005, published 2009)

Key:
USP5 = target: T1, USP5 (Homo sapiens, UniProt P45974); assay: USP5 activity assay; type: biochemical; conditions: 400 nM Ub-AMC, 300 pM enzyme; pre-incubated 30 minutes at 25° C., 60 minutes at 37° C.; sigmoidal fit; read-out: USP 5
T1 sequence (P45974 1-858): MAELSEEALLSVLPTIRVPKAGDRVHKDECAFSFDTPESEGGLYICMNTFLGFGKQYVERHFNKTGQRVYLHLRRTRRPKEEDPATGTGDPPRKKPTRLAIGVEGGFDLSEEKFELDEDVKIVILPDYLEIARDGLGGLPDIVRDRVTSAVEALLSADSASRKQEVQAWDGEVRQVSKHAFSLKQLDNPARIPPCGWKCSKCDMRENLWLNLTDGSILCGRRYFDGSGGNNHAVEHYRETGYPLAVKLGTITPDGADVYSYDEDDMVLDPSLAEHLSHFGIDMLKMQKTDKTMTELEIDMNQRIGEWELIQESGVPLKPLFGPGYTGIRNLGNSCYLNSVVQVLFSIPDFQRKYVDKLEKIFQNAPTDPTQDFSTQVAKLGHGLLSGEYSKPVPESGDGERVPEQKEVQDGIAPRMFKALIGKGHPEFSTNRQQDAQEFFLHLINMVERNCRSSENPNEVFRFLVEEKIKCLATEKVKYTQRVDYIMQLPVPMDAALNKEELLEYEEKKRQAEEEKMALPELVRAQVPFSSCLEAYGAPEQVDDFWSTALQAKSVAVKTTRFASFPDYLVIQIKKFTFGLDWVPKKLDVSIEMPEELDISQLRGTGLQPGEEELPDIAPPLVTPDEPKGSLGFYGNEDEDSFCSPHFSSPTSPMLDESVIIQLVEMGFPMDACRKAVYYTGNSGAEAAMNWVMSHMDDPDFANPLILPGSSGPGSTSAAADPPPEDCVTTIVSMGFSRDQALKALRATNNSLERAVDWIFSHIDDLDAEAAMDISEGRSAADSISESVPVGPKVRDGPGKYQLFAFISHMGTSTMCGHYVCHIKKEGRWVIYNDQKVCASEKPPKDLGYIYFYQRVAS
Experimental: USP5 was diluted in USP buffer (50 mM Tris HCl; 0.5 mM EDTA; 5 mM DTT; 0.01% Triton X-100; Bovine Serum Albumin 0.05 mg.ml^−1 pH 7.6). Compounds stocks (100 mM) were stored at -20° C. in DMSO.
Reactions were performed as duplicates in Black LJL 96 well plates (HE microplates; Molecular Devices; 20 μl final reaction volume). The substrate concentration for USP5 was 400 nM Ub-AMC (Boston Biochem). The concentrations of the enzyme (USP5) in specificity assays was 300 pM. The concentrations were determined in order to perform specificity assays under initial velocities at fixed substrate concentration. Compounds were pre-incubated with enzymes for 30 minutes at 25° C. Reactions were initiated by addition of substrate to the plates containing the enzymes (+/− compounds) diluted in assay buffer. Reactions were incubated for 60 minutes at 37° C. Reactions were stopped by adding acetic acid (100 mM final). Readings were performed on a Pherastar Fluorescent Reader (BMG). λ Emission 380 nm; λ Excitation=460 nm. Data (mean values +/− standard deviation) were analyzed as % of control (no compound) and plotted as percentage versus the Log of the compound concentration using GraphPad (Prism). Data were fitted to a sigmoidal model (variable slope).

Uch-L3 = target: T2, Uch-L3 (Homo sapiens, UniProt P15374); assay: UCH-L3 activity assay; type: biochemical; conditions: 400 nM Ub-AMC, 13 pM enzyme; pre-incubated 30 minutes at 25° C., 60 minutes at 37° C.; sigmoidal fit
T2 sequence (P15374 1-230): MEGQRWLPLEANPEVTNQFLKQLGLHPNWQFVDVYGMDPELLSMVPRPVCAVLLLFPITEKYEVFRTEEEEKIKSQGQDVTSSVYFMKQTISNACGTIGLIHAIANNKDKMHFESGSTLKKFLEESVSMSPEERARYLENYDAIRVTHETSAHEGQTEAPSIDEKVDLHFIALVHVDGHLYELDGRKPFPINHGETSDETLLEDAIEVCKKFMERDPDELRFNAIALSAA
Experimental: Uch-L3 was diluted in USP buffer (50 mM Tris HCl; 0.5 mM EDTA; 5 mM DTT; 0.01% Triton X-100; Bovine Serum Albumin 0.05 mg.ml^−1 pH 7.6). Compounds stocks (100 mM) were stored at −20° C. in DMSO. Compounds were tested at the following final concentrations: 100 μM; 33.3 μM; 11.1 μM; 3.7 μM; 1.23 μM; 412 nM; 137 nM; 45.7 nM; 15.2 nM; 5 nM.
Reactions were performed as duplicates in Black LJL 96 well plates (HE microplates; Molecular Devices; 20 μl final reaction volume). The substrate concentration for Uch-L3 was 400 nM Ub-AMC (Boston Biochem). The concentration of the enzyme (Uch-L3) in specificity assays was 13 pM. The concentrations were determined in order to perform specificity assays under initial velocities at fixed substrate concentration. Compounds were pre-incubated with enzymes for 30 minutes at 25° C. Reactions were initiated by addition of substrate to the plates containing the enzymes (+/− compounds) diluted in assay buffer. Reactions were incubated for 60 minutes at 37° C. Reactions were stopped by adding acetic acid (100 mM final). Readings were performed on a Pherastar Fluorescent Reader (BMG). δ Emission 380 nm; δ Excitation=460 nm. Data (mean values +/− standard deviation) were analyzed as % of control (no compound) and plotted as percentage versus the Log of the compound concentration using GraphPad (Prism). Data were fitted to a sigmoidal model (variable slope).

Row | Compound | IC50 (USP5) [µM] | IC50 (Uch-L3) [µM]
1 | CCc1nnc2nc3c(nn12)C(=O)c1cc(OC)c(OC)cc1-3 [Example 5b/A, 1-Ethyl-6,7-dimethoxy-2,3,4,10,10a-pentaaza-cyclopenta[b]fluoren-9-one] | 4.8 | 1.8
2 | CCc1nnc2nc3c(nn12)-c1cc(OC)c(OC)cc1C3=O [Example 5b/B, 3-Ethyl-6,7-dimethoxy-1,2,3a,4,10-pentaaza-cyclopenta[b]fluoren-9-one] | – | 0.131
3 | CC(C)c1nnc2nc3c(nn12)C(=O)c1ccccc1-3 [Example 1l/A, 1-lsopropyl-2,3,4,10,10a-pentaaza-cyclopenta[b]fluoren-9-one] | 3.9 | 0.8
4 | 6-(7)-Chloro-1-methyl-2,3,4,10,10a-pentaaza-cyclopenta[b]fluoren-9-one [Example 3/A] | 1.54 | 0.323
